Drawing on paper PMC7744152, “New potent steroid sulphatase inhibitors based on 6-(1-phenyl-1H-1,2,3-triazol-4-yl)naphthalen-2-yl sulphamate derivatives” (Journal of Enzyme Inhibition and Medicinal Chemistry, 2020), this text covers remaining activity for nine compounds.

Structures are written as SMILES.

Holding throughout (assay type): biochemical
Experiment [1] has as its target T1, steroid sulphatase (STS) (Homo sapiens, UniProt P08842).
T1 construct: STS enzyme extracted from human placenta and purified
T1 sequence (P08842 22-583): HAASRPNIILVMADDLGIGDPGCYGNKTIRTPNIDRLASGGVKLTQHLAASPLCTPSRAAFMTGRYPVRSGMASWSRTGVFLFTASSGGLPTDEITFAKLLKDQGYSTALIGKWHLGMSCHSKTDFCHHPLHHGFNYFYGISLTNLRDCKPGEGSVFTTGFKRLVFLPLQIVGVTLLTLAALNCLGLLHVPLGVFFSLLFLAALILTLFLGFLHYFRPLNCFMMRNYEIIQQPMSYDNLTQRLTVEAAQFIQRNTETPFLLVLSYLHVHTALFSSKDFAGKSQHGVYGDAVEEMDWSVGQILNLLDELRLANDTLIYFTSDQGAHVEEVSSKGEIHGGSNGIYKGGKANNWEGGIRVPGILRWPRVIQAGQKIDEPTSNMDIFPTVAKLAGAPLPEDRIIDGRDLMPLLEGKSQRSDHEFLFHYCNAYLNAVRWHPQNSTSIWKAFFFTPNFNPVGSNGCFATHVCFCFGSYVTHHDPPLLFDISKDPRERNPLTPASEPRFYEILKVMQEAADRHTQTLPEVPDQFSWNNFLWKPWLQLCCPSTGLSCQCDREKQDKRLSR
The experiment can be described thus: radiolabelled [3H] oestrone sulphate hydrolysis, purified placental STS, […] inhibitor.

The target of experiment [2] is T1, steroid sulphatase (STS). The experiment can be described thus: radiolabelled [3H] oestrone sulphate hydrolysis, purified placental STS, […] inhibitor (also MCF-7 cell IC50 […]).
The target in experiment [3] is T1, steroid sulphatase (STS). The description is as above. This is another data set of the same source.
The target of experiment [4] is T1, steroid sulphatase (STS). The description is as above. The source holds these as a separate data set.

A word on the remaining activity: it is the activity still measured, relative to the control. Read a high remaining activity as a small loss of activity.

On to `NS(=O)(=O)Oc1ccc2cc(-c3cn(-c4cccc(F)c4)nn3)ccc2c1` [3B, 6-(1-(3-Fluorophenyl)-1H-1,2,3-triazol-4-yl)naphthalen-2-yl sulphamate], for which, at steroid sulphatase (STS) [1], the remaining activity at 0.5 µM came to 17.4%.

In the case of `NS(=O)(=O)Oc1ccc2cc(-c3cn(-c4cccc(Cl)c4)nn3)ccc2c1` [3C, 6-(1-(3-Chlorophenyl)-1H-1,2,3-triazol-4-yl)naphthalen-2-yl sulphamate], the remaining activity at 0.5 µM on steroid sulphatase (STS) [1] amounted to 9.66%.

With `NS(=O)(=O)Oc1ccc2cc(-c3cn(-c4cccc(Br)c4)nn3)ccc2c1` [3D, 6-(1-(3-Bromophenyl)-1H-1,2,3-triazol-4-yl)naphthalen-2-yl sulphamate], at steroid sulphatase (STS) [1], the remaining activity at 0.5 µM was determined as 9.62%.

`NS(=O)(=O)Oc1ccc2cc(-c3cn(-c4ccc(Cl)cc4)nn3)ccc2c1` [3F, 6-(1-(4-Chlorophenyl)-1H-1,2,3-triazol-4-yl)naphthalen-2-yl sulphamate] displayed a remaining activity at 0.5 µM at steroid sulphatase (STS) [1] of 18.7%.

On to `NS(=O)(=O)Oc1ccc2cc(-c3cn(-c4ccc(Br)cc4)nn3)ccc2c1` [3G, 6-(1-(4-Bromophenyl)-1H-1,2,3-triazol-4-yl)naphthalen-2-yl sulphamate], for which the remaining activity at 0.5 µM on steroid sulphatase (STS) [1] worked out at 23.1%.

In turn, `NS(=O)(=O)Oc1ccc2cc(-c3cn(-c4ccccc4Cl)nn3)ccc2c1` [3I] returned a remaining activity at 0.5 µM on steroid sulphatase (STS) [2] of 16.9%.

`NS(=O)(=O)Oc1ccc2cc(-c3cn(-c4ccccc4Br)nn3)ccc2c1` [3J, 6-(1-(2-Bromophenyl)-1H-1,2,3-triazol-4-yl)naphthalen-2-yl sulphamate] showed a remaining activity at 0.5 µM at steroid sulphatase (STS) [1] of 15.9%.

`NS(=O)(=O)Oc1ccc2cc(-c3cn(-c4cc(F)cc(F)c4)nn3)ccc2c1` [3K, 6-(1-(3,5-Difluorophenyl)-1H-1,2,3-triazol-4-yl)naphthalen-2-yl sulphamate] had a remaining activity at 0.5 µM at steroid sulphatase (STS) [3] of 14%.

Take `NS(=O)(=O)Oc1ccc2cc(-c3cn(-c4ccc(F)c(F)c4F)nn3)ccc2c1` [3L, 6-(1-(2,3,4-Trifluorophenyl)-1H-1,2,3-triazol-4-yl)naphthalen-2-yl sulphamate]: the remaining activity at 0.5 µM on steroid sulphatase (STS) [4] is 7.98%.
